# Patent US20080119530A1, “Method for treatment and prevention of ultraviolet light induced skin pathologies” (priority 2006, published 2008)
# Marks after values point to notes of the source that are not given here.
# Key:
# skin = assay: Affymetrix microarray analysis of gene expression in mouse skin; type: in vivo
# Text: (§1) Adult female CD-1 mice were maintained in our animal facility and provided with Purina lab chow (Nestlé Purina PetCare, St. Louis, Mo.) and water ad libitum. The dorsal skin was clipped one day before treatment and shaved with a Remington Microscreen shaver (Wahl, Sterling, II) on the day of treatment. […] UVB TL 40W/12 RS bulbs (Philips, Somerset, N.J.) were used that emitted approximately 30% UV-A, 70% UV-B and <1% UV-C, with a total output of 470 μW/cm^2, as measured with radiometric photodetector probes (Newport, Irvine, Calif.). Skin-fold thickness was measured using calipers to lightly pinch the dorsal skin. All animal procedures were approved by our Institutional Animal Care and Use Committee.
# Microarray Analysis. Flash frozen skin was ground to a powder using a mortar and pestle and RNA extracted using a PowerGen 700 tissue homogenizer (Fisher, Hampton, N.H.) in TRIzol reagent (Invitrogen, Carlsbad, Calif.) according to the manufacturer's protocol. Total RNA was further purified using RNeasy Midi Columns according to the manufacturer's protocol (Qiagen, Valencia, Calif.). The quality of the RNA was assessed using an RNA 6000 Pico Assay (Aligent, Palo Alto, Calif.) with a Bioanalyzer (Agilent, Palo Alto, Calif.). Mouse MOE430A gene chips were purchased from Affymetrix (Santa Clara, Calif.). Five micrograms of total RNA from each sample was reverse transcribed using Superscript II (Invitrogen, Carlsbad, Calif.). In vitro transcription to generate biotinylated cRNA was performed using the Bioarray High Yield RNA Transcript Labeling kit (Enzo Diagnostics, Farmingdale, N.Y.). Fifteen micrograms of fragmented cRNA was hybridized for 16 h to mouse MOE430A chips at 45° C. using the Affymetrix 640 hybridization oven, stained, and scanned using the Agilent scanner according to standard Affymetrix protocols. Signal intensities from the Affymetrix “.CEL” files were derived using GeneChip Operating Software v1.2 (Affymetrix, Santa Clara, Calif.), multiplicative model-based expression index (dChip software)^19 and robust multi-array average^20. The data discussed in this publication have been deposited in NCBIs Gene Expression Omnibus (GEO) and are accessible through GEO Series accession number GSE4066. Methods employed to determine significant changes in gene expression from the derived signal intensities were Rank Products (RP)21, Significance Analysis of Microarrays (SAM)^22, Analysis of Variance (ANOVA), Student's t-test, and fold-change. […] Hierarchical clustering of gene expression was performed with dChip software. […] Significant clustering was also found among samples 6 h after UV and among samples 24 h after UV. Furthermore, significant clustering was found among samples treated with DMSO and among those treated with AG825. Scatter plots were generated using GeneChip Operating Software. Self-Organizing Maps were generated using GeneCluster 2.0 software^23. Grouping of genes into biological processes was performed using NetAffx Analysis Center and literature searches. Genes were mapped into biological networks with Pathways Analysis software (Ingenuity Systems, Mountain View, Calif.). Promoter Analysis and Interaction Network Toolset v3.3 (PAINT) was used to scan sequences up to 2000 base pair upstream of genes with altered expression to search for transcription factor binding sequences or transcriptional response elements (TRE) using a 0.95 core similarity threshold^24.
# The influence of Erbb2 on gene expression following UV exposure was assessed using microarray analysis. […] Mice were exposed to UV twice because previous results indicated the influence of Erbb receptors on the response of the skin to UV increases with multiple exposures (22). […] In two randomly selected vehicle-treated and sham-irradiated mice, 8 genes out of approximately 13,000 detected (<0.1%) were expressed with more than a 5-fold difference between them. […]
# mice = assay: Skin-fold thickness as a measure of UV-induced edema; type: in vivo, mouse
# Text: as §1
# [1] = Adhesion and Migration, 6 h post-UV
# [2] = Adhesion and Migration, 24 h post-UV
# [3] = Cell Communication, 6 h post-UV
# [4] = Cell Communication, 24 h post-UV
# [5] = Pigment Biosynthesis, 6 h post-UV
# [6] = Pigment Biosynthesis, 24 h post-UV
smiles,measurement,setting,value
COc1cc(/C=C(\C#N)C(N)=O)cc(CSc2nc3ccccc3s2)c1O [AG825],number of genes with altered expression,skin; 6 h after UV,218
same,share of the altered genes with increased expression,skin; 6 h after UV,61%
same,number of genes with altered expression,skin; 24 h after UV,127
same,share of the altered genes with increased expression,skin; 24 h after UV,54%
same,fold increase in Mmp9 expression,"skin; 24 h after UV exposure, Affymetrix data",2 fold
same,Thbs1 expression vs vehicle-treated mice,"skin; 24 h post-UV, Affymetrix probe",similar
same,Total number of genes changed in AG825-treated samples,skin; Adhesion and Migration,47
same,percentage of the total number of genes altered by Erbb2,skin; Adhesion and Migration,(13%)
same,Number of genes decreased (↓) in AG825-treated samples when compared to the vehicle alone,skin; [1],13
same,Number of genes increased (↑) in AG825-treated samples when compared to the vehicle alone,skin; [1],14
same,Number of genes decreased (↓) in AG825-treated samples when compared to the vehicle alone,skin; [2],14
same,Number of genes increased (↑) in AG825-treated samples when compared to the vehicle alone,skin; [2],4
same,Number of genes decreased (↓) in AG825-treated samples when compared to the vehicle alone,"skin; Adhesion and Migration, Sham",0
same,Number of genes increased (↑) in AG825-treated samples when compared to the vehicle alone,"skin; Adhesion and Migration, Sham",7
same,Total number of genes changed in AG825-treated samples,skin; Apoptosis,25
same,percentage of the total number of genes altered by Erbb2,skin; Apoptosis,(7%)
same,Number of genes decreased (↓) in AG825-treated samples when compared to the vehicle alone,"skin; Apoptosis, 6 h post-UV",6
same,Number of genes increased (↑) in AG825-treated samples when compared to the vehicle alone,"skin; Apoptosis, 6 h post-UV",5
same,Number of genes decreased (↓) in AG825-treated samples when compared to the vehicle alone,"skin; Apoptosis, 24 h post-UV",4
same,Number of genes increased (↑) in AG825-treated samples when compared to the vehicle alone,"skin; Apoptosis, 24 h post-UV",6
same,Number of genes decreased (↓) in AG825-treated samples when compared to the vehicle alone,"skin; Apoptosis, Sham",2
same,Number of genes increased (↑) in AG825-treated samples when compared to the vehicle alone,"skin; Apoptosis, Sham",2
same,Total number of genes changed in AG825-treated samples,skin; Cancer,55
same,percentage of the total number of genes altered by Erbb2,skin; Cancer,(15%)
same,Number of genes decreased (↓) in AG825-treated samples when compared to the vehicle alone,"skin; Cancer, 6 h post-UV",12
same,Number of genes increased (↑) in AG825-treated samples when compared to the vehicle alone,"skin; Cancer, 6 h post-UV",25
same,Number of genes decreased (↓) in AG825-treated samples when compared to the vehicle alone,"skin; Cancer, 24 h post-UV",7
same,Number of genes increased (↑) in AG825-treated samples when compared to the vehicle alone,"skin; Cancer, 24 h post-UV",8
same,Number of genes decreased (↓) in AG825-treated samples when compared to the vehicle alone,"skin; Cancer, Sham",3
same,Number of genes increased (↑) in AG825-treated samples when compared to the vehicle alone,"skin; Cancer, Sham",5
same,Total number of genes changed in AG825-treated samples,skin; Cell Communication,65
same,percentage of the total number of genes altered by Erbb2,skin; Cell Communication,(18%)
same,Number of genes decreased (↓) in AG825-treated samples when compared to the vehicle alone,skin; [3],18
same,Number of genes increased (↑) in AG825-treated samples when compared to the vehicle alone,skin; [3],18
same,Number of genes decreased (↓) in AG825-treated samples when compared to the vehicle alone,skin; [4],20
same,Number of genes increased (↑) in AG825-treated samples when compared to the vehicle alone,skin; [4],5
same,Number of genes decreased (↓) in AG825-treated samples when compared to the vehicle alone,"skin; Cell Communication, Sham",1
same,Number of genes increased (↑) in AG825-treated samples when compared to the vehicle alone,"skin; Cell Communication, Sham",6
same,Total number of genes changed in AG825-treated samples,skin; Development,55
same,percentage of the total number of genes altered by Erbb2,skin; Development,(15%)
same,Number of genes decreased (↓) in AG825-treated samples when compared to the vehicle alone,"skin; Development, 6 h post-UV",8
same,Number of genes increased (↑) in AG825-treated samples when compared to the vehicle alone,"skin; Development, 6 h post-UV",26
same,Number of genes decreased (↓) in AG825-treated samples when compared to the vehicle alone,"skin; Development, 24 h post-UV",12
same,Number of genes increased (↑) in AG825-treated samples when compared to the vehicle alone,"skin; Development, 24 h post-UV",4
same,Number of genes decreased (↓) in AG825-treated samples when compared to the vehicle alone,"skin; Development, Sham",2
same,Number of genes increased (↑) in AG825-treated samples when compared to the vehicle alone,"skin; Development, Sham",6
same,Total number of genes changed in AG825-treated samples,skin; Immune Response,65
same,percentage of the total number of genes altered by Erbb2,skin; Immune Response,(18%)
same,Number of genes decreased (↓) in AG825-treated samples when compared to the vehicle alone,"skin; Immune Response, 6 h post-UV",42
same,Number of genes increased (↑) in AG825-treated samples when compared to the vehicle alone,"skin; Immune Response, 6 h post-UV",3
same,Number of genes decreased (↓) in AG825-treated samples when compared to the vehicle alone,"skin; Immune Response, 24 h post-UV",14
same,Number of genes increased (↑) in AG825-treated samples when compared to the vehicle alone,"skin; Immune Response, 24 h post-UV",4
same,Number of genes decreased (↓) in AG825-treated samples when compared to the vehicle alone,"skin; Immune Response, Sham",0
same,Number of genes increased (↑) in AG825-treated samples when compared to the vehicle alone,"skin; Immune Response, Sham",8
same,Total number of genes changed in AG825-treated samples,skin; Metabolism,158
same,Number of genes decreased (↓) in AG825-treated samples when compared to the vehicle alone,"skin; Metabolism, 6 h post-UV",23
same,Number of genes increased (↑) in AG825-treated samples when compared to the vehicle alone,"skin; Metabolism, 6 h post-UV",63
same,Number of genes decreased (↓) in AG825-treated samples when compared to the vehicle alone,"skin; Metabolism, 24 h post-UV",24
same,Number of genes increased (↑) in AG825-treated samples when compared to the vehicle alone,"skin; Metabolism, 24 h post-UV",43
same,Number of genes decreased (↓) in AG825-treated samples when compared to the vehicle alone,"skin; Metabolism, Sham",10
same,Number of genes increased (↑) in AG825-treated samples when compared to the vehicle alone,"skin; Metabolism, Sham",9
same,Total number of genes changed in AG825-treated samples,skin; Pigment Biosynthesis,6
same,percentage of the total number of genes altered by Erbb2,skin; Pigment Biosynthesis,(2%)
same,Number of genes decreased (↓) in AG825-treated samples when compared to the vehicle alone,skin; [5],0
same,Number of genes increased (↑) in AG825-treated samples when compared to the vehicle alone,skin; [5],5
same,Number of genes decreased (↓) in AG825-treated samples when compared to the vehicle alone,skin; [6],0
same,Number of genes increased (↑) in AG825-treated samples when compared to the vehicle alone,skin; [6],1
same,Number of genes decreased (↓) in AG825-treated samples when compared to the vehicle alone,"skin; Pigment Biosynthesis, Sham",3
same,Number of genes increased (↑) in AG825-treated samples when compared to the vehicle alone,"skin; Pigment Biosynthesis, Sham",0
same,Total number of genes changed in AG825-treated samples,skin; Proliferation,36
same,percentage of the total number of genes altered by Erbb2,skin; Proliferation,(10%)^c
same,Number of genes decreased (↓) in AG825-treated samples when compared to the vehicle alone,"skin; Proliferation, 6 h post-UV",6
same,Number of genes increased (↑) in AG825-treated samples when compared to the vehicle alone,"skin; Proliferation, 6 h post-UV",21
same,Number of genes decreased (↓) in AG825-treated samples when compared to the vehicle alone,"skin; Proliferation, 24 h post-UV",3
same,Number of genes increased (↑) in AG825-treated samples when compared to the vehicle alone,"skin; Proliferation, 24 h post-UV",6
same,Number of genes decreased (↓) in AG825-treated samples when compared to the vehicle alone,"skin; Proliferation, Sham",3^b
same,Number of genes increased (↑) in AG825-treated samples when compared to the vehicle alone,"skin; Proliferation, Sham",2
same,Total number of genes changed in AG825-treated samples,skin; Total Genes,361
same,Number of genes decreased (↓) in AG825-treated samples when compared to the vehicle alone,"skin; Total Genes, 6 h post-UV",85
same,Number of genes increased (↑) in AG825-treated samples when compared to the vehicle alone,"skin; Total Genes, 6 h post-UV",133
same,Number of genes decreased (↓) in AG825-treated samples when compared to the vehicle alone,"skin; Total Genes, 24 h post-UV",59
same,Number of genes increased (↑) in AG825-treated samples when compared to the vehicle alone,"skin; Total Genes, 24 h post-UV",68
same,Number of genes decreased (↓) in AG825-treated samples when compared to the vehicle alone,"skin; Total Genes, Sham",14
same,Number of genes increased (↑) in AG825-treated samples when compared to the vehicle alone,"skin; Total Genes, Sham",25
same,"expression of cell cycle regulatory genes such as Ccna2, Ccnb1 and Ccnb2",skin; after UV,lesser responsiveness to UV
same,share of the altered genes with increased expression,skin; all 361 genes,61%
same,expression of proinflammatory chemokines such as Cxcl2 and Cd44 compared to vehicle-treated skin,skin; by 24 h after UV exposure,lower
same,Il1 b expression: fold greater increase after UV in vehicle-treated compared to AG825-treated samples,skin; microarray,16 fold
same,expression of the anti-apoptotic genes Ghr and Ptgs2,"skin; mouse, in vivo",suppressed
same,fold higher Thbs1 expression compared to corresponding control,"skin; sham-irradiated skin, Affymetrix probe",2 fold
same,number of genes with altered expression,skin; without UV irradiation,39
same,share of the altered genes with increased expression,skin; without UV irradiation,64%
same,suppression of UV-induced edema (skin-fold thickness),mice; 4 d after UV exposure,33%
same,suppression of UV-induced edema (skin-fold thickness),mice; 5 d after UV exposure,37%
same,suppression of UV-induced edema (skin-fold thickness),mice; 6 d after UV exposure,64%
